These results are taken from patent US20060205692A1, “1,1-and 1,2-Bisphosphonates as apoliprotein e modulators” (priority 2002, published 2006).

For this experiment, the system named is ApoE. Kind of experiment: apoE secretion by PMA-differentiated THP-1 cells, apoE quantified by ELISA. The experiment is classed as cell-based, human. Particulars: 3 days; for percent change in apoE secretion versus control at 25 µM / percent change in apoE secretion versus control at 50 µM / percent change in apoE secretion versus control at 100 µM: Homo sapiens, THP-1, 72 h. An excerpt:
The bisphosphonate compounds of the invention can modulate (increase or decrease) apoE levels in plasma and in tissues. The activities of the compounds can be determined in an in vitro cell assay comprising determining the modulatory effect of the test compound on the secretion of apoE by an apoE secreting cell line (e.g., a monocyte-macrophage cell line such as the THP-1 cell line, a liver derived cell line such as the HepG2 cell line, an intestinal derived cell line such as the CaCo2 cell line or a brain derived cell line such as the astrocytoma CCF-STTG1 cell line).
THP-1 cell line (ATCC TIB-202) are cultured in RPMI 1640 (with 2 mM of L-glutamine and 2 g/l of glucose, Invitrogen) supplemented with 2 g/l of sodium hydrogen carbonate (Fluka), 10 U/ml of penicillin, 10 μg/ml of streptomycin (Penicillin-Streptomycin, Invitrogen), 20 μM of 2-mercaptoethanol (Fluka) and 10% FCS (Amimed). Cells are incubated at 37° C. and 5% CO2.
Cells are seeded in 24 well tissue culture plates (Falcon), 2×10^5 cells in 500 μl of culture medium per well or 6 well plates for RT-PCR purpose, 1×10^6 cells in 2.5 ml of medium. PMA (Phorbol 12-myristate 13-acetate, Alexis), (stock in DMSO (Fluka) at 1 mg/ml) and other compounds are diluted in ethanol and added to the cells at an ethanol final concentration not exceeding 1%. Same volume of ethanol is added in controls. Plates are incubated for 3 days at 37° C. and 5% CO2 to allow cell differentiation and apoE secretion.
Medium contained in the wells is harvested and centrifuged 5 min at 1200 rpm. Supernatants are store at −20° C. until apoE quantification. The cell pellets are resuspended in PBS and counted with a ZI Coulter Counter. After a wash with PBS, adherent cells in the well bottoms are detached with trypsin-EDTA solution 10× (Invitrogen) diluted in PBS. The reaction is stopped with the addition of culture medium and the detached cells are counted.
ApoE was quantified by ELISA. 96 well plates (Costar) are coated with 5% of gelatine (from porcine skin, Fluka) in carbonate-bicarbonate buffer (Sigma) for 1 hour at 37° C. After removing the coating solution, 100 μl of THP-1 supernatant are added per well, diluted 5 times in buffer (PBS, 1% Top-Block (Juro), 0.1% Tween 20 (Fluka)). The incubation last 1 hour at 37° C., then the wells are washed 3 times with 200 μl of buffer. Plates are incubated for 1 hour at 37° C. with continuous stirring with the primary antibody (goat anti-human apoE IgG, Calbiochem) at a 10000-time dilution in buffer, 100 μl per well. After 3 washes, plates are incubated with the secondary antibody (rabbit anti-goat-IgG peroxidase conjugated, Sigma) diluted 5000 times, 100 μl per well, at 37° C. with shaking. Then the wells are washed 5 more times and the detection is achieved by adding 100 μl per well of o-phenylenediamine dihydrochloride (Sigma) and incubated for 15-20 minutes with shaking at room temperature. When the appropriated colour is reached, the reaction is stopped by adding 50 μl per well of 3 M sulfuric acid (Fluka) with shaking for 1 minute at room temperature. The absorbance is read at 492 nm versus 620 nm with a microplate photometer (Anthos Reader 2001).

For `CCOP(=O)(OCC)C(c1ccc(OCCN2CCOCC2)cc1)P(=O)(OCC)OCC` [Tetraethyl 1-[4-(2-N-morpholino-ethoxy)-phenyl]-methylidene-1,1-bisphosphonate], the “% ApoE Change” value was −17% (compound 25 μM, 1.25 nM PMA); −20% (compound 25 μM, 2.5 nM PMA); −8% (compound 50 μM, 1.25 nM PMA); −27% (compound 50 μM, 2.5 nM PMA); 43% (compound 100 μM, 1.25 nM PMA); −3% (compound 100 μM, 2.5 nM PMA).
For the molecule `CCOP(=O)(OCC)C(c1ccc(OCCCO)cc1)P(=O)(OCC)OCC` [Tetraethyl 1-[4(3-hydroxy-propoxy)-phenyl]-methylidene-1,1-bisphosphonate], the percent change in apoE secretion versus control at 25 µM is, setting by setting: (compound 25 μM, 1.25 nM PMA) -27%; (compound 25 μM, 2.5 nM PMA) -15%. Also, the percent change in apoE secretion versus control at 50 µM was -21% (compound 50 μM, 1.25 nM PMA) and -16% (compound 50 μM, 2.5 nM PMA). Besides, the percent change in apoE secretion versus control at 100 µM reads like this: (compound 100 μM, 1.25 nM PMA) 20%; (compound 100 μM, 2.5 nM PMA) 0%.
As for `CCOP(=O)(OCC)C(c1ccc(O)cc1)P(=O)(OCC)OCC` [Tetraethyl 1-(4-hydroxy-phenyl)-methylidene-1,1-bisphosphonate], the percent change in apoE secretion versus control at 25 µM was -13% (compound 25 μM, 1.25 nM PMA) and -3% (compound 25 μM, 2.5 nM PMA). The percent change in apoE secretion versus control at 50 µM runs as follows: (compound 50 μM, 1.25 nM PMA) 26%; (compound 50 μM, 2.5 nM PMA) -9%. For the same molecule, the percent change in apoE secretion versus control at 100 µM is, setting by setting: (compound 100 μM, 1.25 nM PMA) 125%; (compound 100 μM, 2.5 nM PMA) 60%.
Regarding `CCOP(=O)(CC(c1ccc(OCCN(C)c2ccccn2)cc1)P(=O)(OCC)OCC)OCC` (stereo not drawn) [Tetraethyl 1-{4-[2-(methyl-pyridin-2-yl-amino)ethoxy]-phenyl}-ethylidene-1,2-bisphosphonate], the percent change in apoE secretion versus control at 25 µM is, setting by setting: (compound 25 μM, 1.25 nM PMA) 77%; (compound 25 μM, 2.5 nM PMA) 110%. The percent change in apoE secretion versus control at 50 µM (compound 50 μM, 1.25 nM PMA) came to 202% and the percent change in apoE secretion versus control at 50 µM (compound 50 μM, 2.5 nM PMA) turned out to be 124%. The percent change in apoE secretion versus control at 100 µM (compound 100 μM, 1.25 nM PMA) was 569% and the percent change in apoE secretion versus control at 100 µM (compound 100 μM, 2.5 nM PMA) stood at 206%.
Consider `CCOP(=O)(OCC)C(c1ccc(OC/C=C(\C)CC/C=C(\C)CCC=C(C)C)cc1)P(=O)(OCC)OCC` [Tetraethyl 1-[4-(trans, trans-3,7,11-trimethyl-dodeca-2,6,10-trienyloxy)-phenyl]-methylidene-1,1-bisphosphonate], for which the “% ApoE Change” value (compound 2.5 μM, 1.25 nM PMA) is listed as 14%; the “% ApoE Change” value (compound 2.5 μM, 2.5 nM PMA) is listed as 27%; the “% ApoE Change” value (compound 5.0 μM, 1.25 nM PMA) came to 46%; the “% ApoE Change” value (compound 5.0 μM, 2.5 nM PMA) was found to be 47%; the “% ApoE Change” value (compound 10 μM, 1.25 nM PMA) amounted to 31%; the “% ApoE Change” value (compound 10 μM, 2.5 nM PMA) was 40%.
